Results: ChEMBL document CHEMBL3632488, “Discovery of potent and selective cytotoxic activity of new quinazoline-ureas against TMZ-resistant glioblastoma multiforme (GBM)” (Eur J Med Chem, 2015)
Calls of active or inactive are those of the source. The calls are words filed in the database; no cut-off is given here.

Columns and labels:
[1] = target: Translocator protein (Rattus norvegicus) (UniProt P16257); experiment: Displacement of [3H]PK11195 from TSPO receptor in Sprague-Dawley rat cerebral cortex membrane at 10 nM by radiometric competitive assay; type: tissue-based
[2] = test system: GBM; experiment: Tumoricidal effect in patient derived GBM 025T cells assessed as reduction in neurosphere formation at 0.5 uM after 1 to 2 weeks by 3D tumor clonogenic assay; type: functional, cell-based; conditions: Homo sapiens
[3] = Antiproliferative activity against human GBM1 cells assessed as reduction in cell viability incubated for 72 hrs by WST-1 method; type: functional, cell-based; conditions: GBM1, 72 h
[4] = test system: GBM; experiment: Tumoricidal effect in patient derived GBM 025T cells assessed as reduction in neurosphere formation at 0.1 uM after 1 to 2 weeks by 3D tumor clonogenic assay; type: functional, cell-based; conditions: Homo sapiens
[5] = Antiproliferative activity against human GBM3 cells assessed as reduction in cell viability at 10 uM incubated for 72 hrs by WST-1 method; type: functional; conditions: GBM3, 72 h
[6] = test system: GBM; experiment: Tumoricidal effect in patient derived GBM 448T cells assessed as reduction in neurosphere formation at 0.5 uM after 1 to 2 weeks by 3D tumor clonogenic assay; type: functional, cell-based; conditions: Homo sapiens
[7] = target: Translocator protein (Rattus norvegicus) (UniProt P16257); experiment: Displacement of [3H]PK11195 from TSPO receptor in Sprague-Dawley rat cerebral cortex membrane at 10 uM by radiometric competitive assay; type: tissue-based
[8] = test system: GBM; experiment: Tumoricidal effect in patient derived GBM 047T cells assessed as reduction in neurosphere formation at 0.5 uM after 1 to 2 weeks by 3D tumor clonogenic assay; type: functional, cell-based; conditions: Homo sapiens
[9] = test system: GBM2; experiment: Induction of apoptosis in human GBM2 cells assessed as loss of mitochondrial membrane potential at 10 uM after 2 hrs by JC-1 staining based fluorescence microscopy; type: functional, cell-based
[10] = target: Cytochrome P450 2D6 (Homo sapiens, UniProt P10635); experiment: Inhibition of CYP2D6 (unknown origin) using luciferin tagged substrate preincubated for 10 mins before substrate addition; type: ADME
[11] = target: Cytochrome P450 2C19 (Homo sapiens, UniProt P33261); experiment: Inhibition of CYP2C19 (unknown origin) using luciferin tagged substrate preincubated for 10 mins before substrate addition; type: ADME
[12] = test system: GBM2; experiment: Induction of apoptosis in human GBM2 cells assessed as loss of mitochondrial membrane potential in presence of PK11195 at 10 uM after 2 hrs by JC-1 staining based fluorescence microscopy; type: functional, cell-based
[13] = Cytotoxicity against normal human astrocytes assessed as cell viability incubated for 72 hrs by WST-1 method; type: cell-based; conditions: Astrocyte
[14] = target: Translocator protein (Rattus norvegicus, UniProt P16257); experiment: Displacement of [3H]PK11195 from TSPO receptor in Sprague-Dawley rat cerebral cortex membrane by radiometric competitive assay; type: tissue-based
[15] = test system: GBM1; experiment: Induction of apoptosis in human GBM1 cells assessed as loss of mitochondrial membrane potential at 10 uM after 2 hrs by JC-1 staining based fluorescence microscopy; type: functional, cell-based
[16] = Selectivity index, ratio of IC50 for normal human astrocytes to IC50 for human GBM2 cells
[17] = Antiproliferative activity against human GBM2 cells assessed as reduction in cell viability at 10 uM incubated for 72 hrs by WST-1 method; type: functional; conditions: GBM2, 72 h
[18] = test system: GBM; experiment: Tumoricidal effect in patient derived GBM 464T cells assessed as reduction in neurosphere formation at 0.1 uM after 1 to 2 weeks by 3D tumor clonogenic assay; type: functional, cell-based; conditions: Homo sapiens
[19] = target: T1, Cytochrome P450 1A2 (Homo sapiens, UniProt P05177); experiment: Inhibition of CYP1A2 (unknown origin) using luciferin tagged substrate preincubated for 10 mins before substrate addition; type: ADME
T1 sequence (P05177 whole entry): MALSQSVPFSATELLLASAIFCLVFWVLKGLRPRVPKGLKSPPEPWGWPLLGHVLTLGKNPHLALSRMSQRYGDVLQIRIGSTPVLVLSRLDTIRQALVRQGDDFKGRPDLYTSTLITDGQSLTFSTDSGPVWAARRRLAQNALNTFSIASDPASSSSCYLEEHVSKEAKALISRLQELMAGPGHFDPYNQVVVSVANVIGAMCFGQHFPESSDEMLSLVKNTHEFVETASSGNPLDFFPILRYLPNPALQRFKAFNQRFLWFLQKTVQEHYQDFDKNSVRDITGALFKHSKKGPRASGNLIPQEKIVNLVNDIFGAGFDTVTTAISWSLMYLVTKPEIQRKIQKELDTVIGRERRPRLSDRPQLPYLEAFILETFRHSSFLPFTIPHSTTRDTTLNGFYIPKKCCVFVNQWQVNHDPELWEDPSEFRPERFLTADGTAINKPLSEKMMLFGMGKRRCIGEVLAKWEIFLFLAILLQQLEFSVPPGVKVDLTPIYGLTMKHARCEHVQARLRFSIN

[20] = target: Translocator protein (Rattus norvegicus) (UniProt P16257); experiment: Displacement of [3H]PK11195 from TSPO receptor in Sprague-Dawley rat cerebral cortex membrane at 100 nM by radiometric competitive assay; type: tissue-based
[21] = test system: GBM; experiment: Tumoricidal effect in patient derived GBM 047T cells assessed as reduction in neurosphere formation at 0.1 uM after 1 to 2 weeks by 3D tumor clonogenic assay; type: functional, cell-based; conditions: Homo sapiens
[22] = Antiproliferative activity against human GBM3 cells assessed as reduction in cell viability incubated for 72 hrs by WST-1 method; type: functional, cell-based; conditions: GBM3, 72 h
[23] = target: Cytochrome P450 3A4 (Homo sapiens, UniProt P08684); experiment: Inhibition of CYP3A4 (unknown origin) using luciferin tagged substrate preincubated for 10 mins before substrate addition; type: ADME
[24] = Selectivity index, ratio of IC50 for normal human astrocytes to IC50 for human GBM1 cells
[25] = test system: GBM2; experiment: Induction of apoptosis in human GBM2 cells assessed as loss of mitochondrial membrane potential in presence of BAPTA at 10 uM after 2 hrs by JC-1 staining based fluorescence microscopy; type: functional, cell-based
[26] = test system: GBM; experiment: Tumoricidal effect in patient derived GBM 464T cells assessed as reduction in neurosphere formation at 0.5 uM after 1 to 2 weeks by 3D tumor clonogenic assay; type: functional, cell-based; conditions: Homo sapiens
[27] = Selectivity index, ratio of IC50 for normal human astrocytes to IC50 for human GBM3 cells
[28] = target: Cytochrome P450 2C9 (Homo sapiens, UniProt P11712); experiment: Inhibition of CYP2C9 (unknown origin) using luciferin tagged substrate preincubated for 10 mins before substrate addition; type: ADME
[29] = test system: GBM; experiment: Tumoricidal effect in patient derived GBM 096T cells assessed as reduction in neurosphere formation at 0.1 uM after 1 to 2 weeks by 3D tumor clonogenic assay; type: functional, cell-based; conditions: Homo sapiens
[30] = target: Translocator protein (Rattus norvegicus) (UniProt P16257); experiment: Displacement of [3H]PK11195 from TSPO receptor in Sprague-Dawley rat cerebral cortex membrane at 1 uM by radiometric competitive assay; type: tissue-based
[31] = Antiproliferative activity against human GBM1 cells assessed as reduction in cell viability at 10 uM incubated for 72 hrs by WST-1 method; type: functional; conditions: GBM1, 72 h
[32] = Antiproliferative activity against human GBM2 cells assessed as reduction in cell viability incubated for 72 hrs by WST-1 method; type: functional, cell-based; conditions: GBM2, 72 h
[33] = target: Voltage-gated inwardly rectifying potassium channel KCNH2 (Homo sapiens, UniProt Q12809); experiment: Displacement of [3H]astemizole from human ERG potassium channel expressed in HEK293 cell membrane after 1 hr; type: cell membranes
[34] = test system: GBM2; experiment: Induction of apoptosis in human GBM2 cells assessed as loss of mitochondrial membrane potential in presence of cyclosporine A at 10 uM after 2 hrs by JC-1 staining based fluorescence microscopy; type: functional, cell-based
[35] = test system: GBM; experiment: Tumoricidal effect in patient derived GBM 096T cells assessed as reduction in neurosphere formation at 0.5 uM after 1 to 2 weeks by 3D tumor clonogenic assay; type: functional, cell-based; conditions: Homo sapiens
[36] = test system: GBM; experiment: Tumoricidal effect in patient derived GBM 448T cells assessed as reduction in neurosphere formation at 0.1 uM after 1 to 2 weeks by 3D tumor clonogenic assay; type: functional, cell-based; conditions: Homo sapiens

inhibition [1]: 2%
inhibition [7]: 85%
IC50 [10]: 5.1 µM
IC50 [11]: > 10 µM
IC50 [14]: 0.722 µM
IC50 [19]: > 10 µM
inhibition [20]: 15%
IC50 [23]: > 10 µM
IC50 [28]: > 10 µM
inhibition [30]: 59%
Compound: O=C(Nc1cc2ncncc2cc1OCc1cccc(Cl)c1)Nc1cccc2ccccc12
Activity [2]: Active
IC50 [3]: 1.1 µM
Activity [4]: Active
inhibition at 10 µM [5]: 98.7%
Activity [6]: Active
Activity [8]: Active
Activity [9]: Active
Activity [12]: Active
IC50 [13]: > 10 µM
Activity [15]: Active
Ratio IC50 [16]: >10.1
inhibition at 10 µM [17]: 99.9%
Activity [18]: Active
Activity [21]: inactive
IC50 [22]: 0.8 µM
Ratio IC50 [24]: >10.1
Activity [25]: Active
Activity [26]: Active
Ratio IC50 [27]: >10.1
Activity [29]: Active
inhibition at 10 µM [31]: 100%
IC50 [32]: 1.1 µM
IC50 [33]: > 10 µM
Activity [34]: Active
Activity [35]: Active
Activity [36]: inactive
